The target in this assay is T1, human IP receptor (PGI2 receptor) (Homo sapiens, UniProt P43119).
T1 construct: gene PTGIR
The assay can be described thus: competitive binding assay with membrane fractions of CHO or COS-7 cells expressing the receptor; also cAMP increase in COS-7 cells expressing human IP.

Results on one compound are retold here after paper PMC6268181, “Synthesis of Novel IP Agonists via N-Aminoethyl Cyclic Amines Prepared by Decarboxylative Ring-Opening Reactions” (Molecules, 2012).

Where a name gives a salt, the structure may show the parent alone.

T1 sequence (P43119 1-383): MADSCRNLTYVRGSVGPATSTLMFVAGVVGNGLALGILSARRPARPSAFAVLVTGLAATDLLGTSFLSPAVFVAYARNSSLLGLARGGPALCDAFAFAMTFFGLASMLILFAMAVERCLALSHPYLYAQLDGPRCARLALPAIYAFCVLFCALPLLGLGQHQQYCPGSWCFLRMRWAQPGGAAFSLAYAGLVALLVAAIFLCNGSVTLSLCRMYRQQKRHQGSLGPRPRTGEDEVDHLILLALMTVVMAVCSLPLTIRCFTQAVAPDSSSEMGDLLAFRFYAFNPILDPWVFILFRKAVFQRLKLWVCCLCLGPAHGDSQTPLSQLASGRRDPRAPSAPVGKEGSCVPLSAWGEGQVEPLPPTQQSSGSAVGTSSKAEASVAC

`O=C(O)COC1CCN(CCN(C(=O)c2ccc3c(c2)OCO3)c2ccc(Cl)cc2)CC1` [compound 2, 2-((1-(2-(N-(4-Chlorophenyl)benzo[d][1,3]dioxole-5-carboxamido)ethyl)piperidin-4-yl)oxy)acetic acid phosphoric acid salt] yielded an inhibitory constant (Ki) of 310 nM.
